Assay [1] has as its system U2OS cells. Description: Transferrin (Tfn) endocytosis (RME) in U2OS cells. Format: cell-based. Particulars: 15 min peptide preincubation at various concentrations, Tfn 15 min at 37° C. As to the method: Briefly, non-neuronal U2OS cells were preincubated with vehicle only or each peptide at various concentrations for 15 min. Cells were then incubated with Tfn for 15 min at 37° C., acid washed, fixed and internalized Tfn was detected by fluorescence microscopy. Quantitative analysis of endocytosis in the presence of different concentrations of the peptides is shown as mean fluorescence as a percent of fluorescence in control cells. The results shown in FIG. 11 are representative of 2 independent experiments. Endocytosis in control cells (no peptide) is expressed as 100%.

For assay [2], the system named is synaptosomes (SV retrieval from the plasma membrane). The experiment in a line: FM2-10 SV internalisation assay (purified SVs from synaptosomes). Format: cell-based, rat. As to the method:
(§1) Loading of FM2-10 (Molecular Probes) into recycling synaptosomal SVs was measured as previously described. Data is presented as Ca^2+-dependent FM2-10 unloading, which is the difference between release after loading in plus and minus Ca^2+ solutions. Where indicated, synaptosomes were preincubated with penetratin peptide for 30 min prior to stimulation of FM2-10 loading. […] The same assay was used to monitor the effect of penetratin peptide on SV exocytosis. However, in this instance, the synaptosomes were loaded with FM2-10 in plus Ca^2+ Krebs-like solution and, where indicated, were preincubated with penetratin peptide for 30 min prior to stimulation of FM2-10 unloading. Data is presented as Ca^2+-dependent FM2-10 unloading. The SV internalisation assay was performed as previously described.
If SVE was arrested before SV fission occurred, […]. SVs were purified and their fluorescence values were corrected for dye uptake in the absence of Ca^2+ (Ca^2+-dependent) and normalised to control (n=3, mean ±s.e.m.).

Assay [3] has as its system synaptosomes (SV exocytosis). Description: KCl-evoked Ca2+-dependent glutamate release assay in synaptosomes. Format: cell-based, rat. Conditions: peptide preincubated 30 min; KCl stimulation. As to the method:
(§2) In all SV recycling studies synaptosomes were prepared from rat cerebral cortex by centrifugation on discontinuous percoll gradients (Dunkley et al. 1986). The glutamate release assay was performed as described before (Cousin and Robinson 2000a). Data is presented as Ca^2+-dependent glutamate release, calculated as the difference between release in plus and minus Ca^2+ solutions. Penetratin peptides (Genemed Synthesis) were preincubated with the synaptosomes for 30 min before stimulation and had no effect on Ca^2+-independent release of glutamate.
A block in SV turnover cannot be ascribed to an inhibition of SVE until an effect on exocytosis has been excluded. Two independent exocytosis assays were conducted to assess this: endogenous glutamate release and FM2-10 unloading. Neither the DynI769-784AA nor DynI769-784EE peptide had any significant effect on KCl-evoked Ca^2+-dependent glutamate release (DynI769-784AA […]±8.4% of control; DynI769-784EE […]±9.5% of control, FIG. 5c). Both peptides had small effects on FM2-10 unloading evoked by 30 mM KCl (DynI769-784AA −81.1±0.8% of control; DynI769-784EE −82.3±0.6% of control, FIG. 5d). Finally, the extent of SVE inhibition by the peptides was quantified by calculating “retrieval efficiency” which takes into account prior exocytosis; a value of less than one indicating a selective SVE inhibition. […]

Assay [4] concerns synaptosomes (SV exocytosis). Description: FM2-10 unloading (SV exocytosis) assay in synaptosomes. Format: cell-based, rat. Conditions: evoked by 30 mM KCl; peptide preincubated 30 min before unloading. On the procedure:
as §1
A block in SV turnover cannot be ascribed to an inhibition of SVE until an effect on exocytosis has been excluded. Two independent exocytosis assays were conducted to assess this: endogenous glutamate release and FM2-10 unloading. […] Finally, the extent of SVE inhibition by the peptides was quantified by calculating “retrieval efficiency” which takes into account prior exocytosis; a value of less than one indicating a selective SVE inhibition. […]

For assay [5], the system named is synaptosomes (synaptic vesicle turnover). The experiment in a line: SV turnover assay (FM2-10 loading/unloading) in synaptosomes. The assay is classed as cell-based, rat. As to the method:
as §2, §1
SVE in synaptosomes was measured to determine whether the phosphorylation sites in dynamin I play a direct role in SVE. Since isolated nerve terminals cannot be transfected with DNA, a membrane-permeable peptide strategy was employed. Mimetic peptides (DynI769-784AA (SEQ ID No. 8) and DynI769-784EE (SEQ ID No. 9)) were designed corresponding to the amino acid sequence of the dynamin I phospho-box (FIG. 5a) and were tagged with a penetratin heptapeptide RRMKWKK (SEQ ID No. 12) to facilitate their delivery into synaptosomes. Briefly, synaptosomes were preincubated in the presence or absence of either penetratin peptide (250 μM) prior to FM2-10 loading stimulated by 30 mM KCl. Accumulated FM2-10 was unloaded by another KCl stimulus (indicated by the solid bar). […] If the phosphorylation-regulated syndapin I interaction itself is essential for SVE, the penetratin-linked peptides may inhibit the process. […] The DynI769-784AA peptide (250 μM) inhibited turnover by more than 40% (57.1±2.1% of control), compared to less than 20% with the DynI769-784EE peptide (250 μM, 81.1±2.4% of control).

In assay [6] the target is T1, endophilin I binding to DynI-PRD (Rattus norvegicus, UniProt O35179).
T1 construct: from tissue; host or cells: target from total rat brain extract; GST-DynI-PRD made in house in Escherichia coli
Description: GST-DynI-PRD pull-down with peptide competition: endophilin I. Conditions: increasing amounts of peptide. On the procedure: (§3) Total rat brain extract was prepared by homogenising brain tissue in ice-cold lysis buffer (1% Triton X-100, 150 mM NaCl, 25 mM Tris pH 7.4, 1 mM EDTA, 1 mM EGTA, 20 μg/ml leupeptin, 1 mM phenylmethylsulfonyl fluoride and EDTA-free Complete protease inhibitor (Roche)). The homogenate was centrifuged twice at 75,600 g for 30 min at 4° C. The supernatant was pre-cleared by addition of GSH-sepharose beads for 1 h, pelleted at 50 g for 5 min at 4° C., and the supernatant collected. GST-DynI-PRD recombinant proteins were then incubated with an equal amount of tissue lysate at 4° C. for 1 h. Beads were washed extensively with ice-cold 20 mM Tris pH 7.4 containing 1 mM EGTA, eluted in 2×SDS-PAGE sample buffer, resolved on 7.5-15% gradient SDS gels and stained with colloidal Coomassie Blue. Identification of proteins was by matrix-assisted laser desorption ionization time-of-flight mass spectrometry (MALDI-TOF MS). Some peptides were sequenced by tandem MS/MS.
(§4) A common characteristic of most binding sites for SH3 domains is the presence of the core amino acid motif PxxP, which is often followed or preceded by a basic Arg residue. There are 13 such motifs in the dynamin I PRD (numbered from site 1 at the N-terminus of the PRD at Pro-753 in dynamin I). […]

Assay [7] relates to p85 (the regulatory subunit of PI-3 kinase). Description: GST-DynI-PRD pull-down with peptide competition: p85. The assay is classed as binding, rat. Particulars: increasing amounts of peptide. On the procedure: as §3, §4
In assay [8] the target is T2, amphiphysin I binding to DynI-PRD (Rattus norvegicus, UniProt O08838).
T2 construct: it is full-length amphiphysin I being detected in the present study; from tissue; host or cells: target from total rat brain extract; GST-DynI-PRD made in house in Escherichia coli
T2 sequence (O08838 1-683): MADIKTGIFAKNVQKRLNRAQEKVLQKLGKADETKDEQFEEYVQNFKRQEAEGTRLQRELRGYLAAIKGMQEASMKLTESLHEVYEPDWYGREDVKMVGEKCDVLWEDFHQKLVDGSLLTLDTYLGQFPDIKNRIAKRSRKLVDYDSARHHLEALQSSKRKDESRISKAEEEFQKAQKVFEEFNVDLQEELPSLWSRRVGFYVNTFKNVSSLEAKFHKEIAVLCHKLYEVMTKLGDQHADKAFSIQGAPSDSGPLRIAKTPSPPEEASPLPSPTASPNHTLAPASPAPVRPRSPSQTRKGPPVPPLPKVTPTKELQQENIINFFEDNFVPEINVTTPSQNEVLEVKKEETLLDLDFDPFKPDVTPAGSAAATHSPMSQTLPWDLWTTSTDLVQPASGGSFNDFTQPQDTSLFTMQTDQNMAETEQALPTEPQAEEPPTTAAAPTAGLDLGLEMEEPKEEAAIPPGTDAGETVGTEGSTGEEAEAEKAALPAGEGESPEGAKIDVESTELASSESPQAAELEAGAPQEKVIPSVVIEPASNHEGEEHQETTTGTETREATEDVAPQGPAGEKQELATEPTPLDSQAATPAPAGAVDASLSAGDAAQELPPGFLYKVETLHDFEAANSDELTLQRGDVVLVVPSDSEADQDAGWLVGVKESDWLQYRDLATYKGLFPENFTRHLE
The experiment in a line: GST-DynI-PRD pull-down with peptide competition: amphiphysin I. As to the method:
as §3
A common characteristic of most binding sites for SH3 domains is the presence of the core amino acid motif PxxP, which is often followed or preceded by a basic Arg residue. […]
The binding site of amphiphysin I has previously been mapped to a single site, site 9 (FIG. 8), within the dynamin I-PRD (Grabs et al. 1997; Vallis et al. 1999). […] However, it is full-length amphiphysin I being detected in the present study. […]

Assay [9] deals with T3, Syndapin I binding to DynI-PRD (Rattus norvegicus, UniProt Q9Z0W5).
T3 construct: from tissue; host or cells: target from total rat brain extract; GST-DynI-PRD made in house in Escherichia coli
The experiment in a line: GST-DynI-PRD pull-down from rat brain lysate with peptide competition: syndapin I. Particulars: increasing amounts of peptide. On the procedure:
as §3, §4

T1 sequence (O35179 whole entry): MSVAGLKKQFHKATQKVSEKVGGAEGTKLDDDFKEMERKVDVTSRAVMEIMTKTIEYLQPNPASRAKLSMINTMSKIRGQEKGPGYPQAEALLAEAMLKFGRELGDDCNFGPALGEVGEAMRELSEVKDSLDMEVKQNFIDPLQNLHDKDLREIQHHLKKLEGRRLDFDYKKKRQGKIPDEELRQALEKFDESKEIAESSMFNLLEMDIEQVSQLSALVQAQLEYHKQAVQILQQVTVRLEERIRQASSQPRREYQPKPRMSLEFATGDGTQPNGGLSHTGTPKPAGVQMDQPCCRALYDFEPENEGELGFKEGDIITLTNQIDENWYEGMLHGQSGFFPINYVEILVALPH
T3 sequence (Q9Z0W5 whole entry): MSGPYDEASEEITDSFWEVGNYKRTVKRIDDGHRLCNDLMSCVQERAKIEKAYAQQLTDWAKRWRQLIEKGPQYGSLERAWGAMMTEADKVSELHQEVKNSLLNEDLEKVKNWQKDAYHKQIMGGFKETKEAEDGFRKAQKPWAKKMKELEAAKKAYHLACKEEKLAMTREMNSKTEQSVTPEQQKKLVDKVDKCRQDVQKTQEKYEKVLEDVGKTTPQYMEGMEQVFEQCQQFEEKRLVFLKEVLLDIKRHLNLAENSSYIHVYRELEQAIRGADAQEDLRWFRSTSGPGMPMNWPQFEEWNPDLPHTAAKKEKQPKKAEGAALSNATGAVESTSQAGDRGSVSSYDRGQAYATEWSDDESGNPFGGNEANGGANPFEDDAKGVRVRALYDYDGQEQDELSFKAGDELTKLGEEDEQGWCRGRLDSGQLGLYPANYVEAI

In the case of “DynI769-784EE: Dynamin I phospho-box mimetic peptide (residues 769-784), EE mutant, tagged with penetratin heptapeptide RRMKWKK (RRMKWKKPAGRREPTSEPTPQRR; listed as Rattus norvegicus)”, the “endocytosis of transferrin (Tfn), RME” value in assay [1] was “without effect”. The “inhibition of FM2-10 accumulation in SVs” value in assay [2] was “no significant effect”. For the same substance, the “FM2-10 accumulation in purified SVs (Ca2+-dependent)” value in assay [2] (n=3, mean ± s.e.m.) is given as 90.7±7.1 % of control. For the same substance, in [3], the “KCl-evoked Ca2+-dependent glutamate release” value is recorded as 90.2±9.5 % of control. Also, the FM2-10 unloading in assay [4] is 82.3±0.6 % of control. Besides, the “inhibition of SV turnover” value in assay [5] (peptide 250 μM) is given as “less than 20%”. Besides, the SV turnover in assay [5] (peptide 250 μM, 30 min preincubation, FM2-10 loading with 30 mM KCl) is given as 81.1±2.4 % of control. For the same substance, the “retrieval efficiency (SV turnover/exocytosis)” value in assay [5] (using data from either exocytosis assay, value below one = selective SVE inhibition) is “little effect”.
With “RRAPAVPPARPGSR (listed as Rattus norvegicus) [DynI783-796, Peptide corresponding to site 2 and site 3 region of dynamin I PRD]”, the “inhibitory effect on endophilin I binding (relative to syndapin I)” value in assay [6] is reported as “five-fold weaker inhibitory effect”. In addition, the “effect on binding to p85” value in assay [7] was “little effect”. Also, the “peptide concentration needed to inhibit amphiphysin I binding, relative” value in assay [8] is reported as 10 times higher peptide concentrations. Further, the “effect on amphiphysin I binding” value in assay [8] (later judged a non-specific artefact of Arg/Pro-rich peptide) is listed as “inhibitory effect”. Moreover, in assay [9], the “Syndapin I binding to DynI-PRD” value is listed as “greatly reduced in a concentration-dependent manner”.
